Measurements published in patent US20250152574A1 (BIOGEN MA INC., priority 2022, published 2025).

What follows are compounds tested against T1, EBP (Homo sapiens, UniProt Q15125) (assay: EBP Functional Assay (EBP immunoaffinity LC-MS assay)). Details: HEK293T cells as source of EBP enzyme; substrate zymosterol-d5, 37° C. for 4 h; percent conversion to dehydrolathosterol-d5 by LC-APCI MRM MS.
T1 construct: HEK293T cells were utilized as the source of EBP enzyme; endogenous in cells; host or cells: HEK293T
T1 sequence (Q15125 whole entry): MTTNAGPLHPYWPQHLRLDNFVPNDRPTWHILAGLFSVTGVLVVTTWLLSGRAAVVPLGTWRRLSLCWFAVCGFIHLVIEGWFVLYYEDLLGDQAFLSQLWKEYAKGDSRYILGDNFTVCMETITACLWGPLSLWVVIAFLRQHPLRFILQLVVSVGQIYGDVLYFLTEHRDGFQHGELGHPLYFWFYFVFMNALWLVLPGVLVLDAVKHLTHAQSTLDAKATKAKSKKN
Assay type: biochemical
Procedure, shortened: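 HEK293T cells served as EBP source; enzyme preincubated 30 min with inhibitor dilutions, then zymosterol-d5 substrate added and incubated 4 h at 37° C. Sterols extracted and quantified by LC-APCI MRM MS; percent conversion to […] fit to 4-parameter logistic for IC50. Tasin-1 reference inhibitor.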

`O=S(=O)(c1ccc2ncc(F)cc2c1)N1CCC2(CCC(N3CC4(COC4)C3)C2)CC1` (centres unmarked) [Example 133, 6-(8-((3-fluoroquinolin-6-yl)sulfonyl)-8-azaspiro[4.5]decan-2-yl)-2-oxa-6-azaspiro[3.3]heptane] and `O=S(=O)(c1ccc2cccnc2c1)N1CCC2(CCC(N3CC4(COC4)C3)C2)CC1` (centres unmarked) [Example 144, 6-(8-(quinolin-7-ylsulfonyl)-8-azaspiro[4.5]decan-2-yl)-2-oxa-6-azaspiro[3.3]heptane] fall in the same range of IC50: 100 to 250 nM for the first, 100 to 250 nM for the second.

First: O=S(=O)(c1ccc(OC2CC2)cc1)N1CCC2(CCC(N3CC4(COC4)C3)C2)CC1 (centres unmarked) [Example 134, 6-(8-((4-cyclopropoxyphenyl)sulfonyl)-8-azaspiro[4.5]decan-2-yl)-2-oxa-6-azaspiro[3.3]heptane]
Second: O=S(=O)(c1ccc2ccoc2c1)N1CCC2(CCC(N3CC4(COC4)C3)C2)CC1 (centres unmarked) [Example 135, 6-(8-(benzofuran-6-ylsulfonyl)-8-azaspiro[4.5]decan-2-yl)-2-oxa-6-azaspiro[3.3]heptane]
The IC50 of the first is higher: 250 to 1500 nM for the first, 100 to 250 nM for the second. The second is the more potent here.

First: COc1ccc(S(=O)(=O)N2CCC3(CC2)CC(N(C)C2CC4(COC4)C2)CO3)c(F)c1 (centres unmarked) [Example 136, 8-((2-fluoro-4-methoxyphenyl)sulfonyl)-N-methyl-N-(2-oxaspiro[3.3]heptan-6-yl)-1-oxa-8-azaspiro[4.5]decan-3-amine]
Second: Cc1nc(C(F)(F)F)ncc1S(=O)(=O)N1CCC2(CC1)CC(N(C)C1CC3(COC3)C1)CO2 (centres unmarked) [Example 140, N-methyl-8-((4-methyl-2-(trifluoromethyl)pyrimidin-5-yl)sulfonyl)-N-(2-oxaspiro[3.3]heptan-6-yl)-1-oxa-8-azaspiro[4.5]decan-3-amine]
The IC50 of the first is higher: 100 to 250 nM for the first, < 100 nM for the second.

`Cc1nc(C(F)(F)F)ccc1S(=O)(=O)N1CCC2(CC1)CC(NC1CC3(COC3)C1)CO2` (centres unmarked) [Example 137, 8-((2-methyl-6-(trifluoromethyl)pyridin-3-yl)sulfonyl)-N-(2-oxaspiro[3.3]heptan-6-yl)-1-oxa-8-azaspiro[4.5]decan-3-amine] and `Cc1nc(C(F)(F)F)ccc1S(=O)(=O)N1CCC2(CC1)CC(NC1CCOCC1)CO2` (centres unmarked) [Example 138, 8-((2-methyl-6-(trifluoromethyl)pyridin-3-yl)sulfonyl)-N-(tetrahydro-2H-pyran-4-yl)-1-oxa-8-azaspiro[4.5]decan-3-amine] fall in the same range of IC50: 250 to 1500 nM for the first, 250 to 1500 nM for the second.

`Cn1nc(C(F)(F)F)cc1S(=O)(=O)N1CCC2(CC1)CC(NC1CC3(COC3)C1)CO2` (centres unmarked) [Example 139, 8-((1-methyl-3-(trifluoromethyl)-1H-pyrazol-5-yl)sulfonyl)-N-(2-oxaspiro[3.3]heptan-6-yl)-1-oxa-8-azaspiro[4.5]decan-3-amine] and `Cc1cc(S(=O)(=O)N2CCC3(CCC(N4CC5(COC5)C4)C3)CC2)n(C)n1` (centres unmarked) [Example 142, 6-(8-((1,3-dimethyl-1H-pyrazol-5-yl)sulfonyl)-8-azaspiro[4.5]decan-2-yl)-2-oxa-6-azaspiro[3.3]heptane] fall in the same range of IC50: 100 to 250 nM for the first, 100 to 250 nM for the second.

Compound `O=S(=O)(c1ccc(OC(F)F)cc1)N1CCC2(CC1)CC(N1CC3(CCCOC3)C1)CO2` (centres unmarked) [Example 143, 8-((4-(difluoromethoxy)phenyl)sulfonyl)-3-(6-oxa-2-azaspiro[3.5]nonan-2-yl)-1-oxa-8-azaspiro[4.5]decane] has an IC50 of 100 to 250 nM.
